Assay results as given in patent US20210228523A1, “MODULATORS OF SESTRIN-GATOR2 INTERACTION AND USES THEREOF” (Navitor Pharmaceuticals, Inc., priority 2017, published 2021).
“And” between values parts separate entries of the source, which are not always exact repeats. Equal values may be shown once.

Columns and labels:
Male Sprague Dawley rats [1] = test: Novelty Suppressed Feeding Test (NSFT) with home cage feeding control; assay type: in vivo, rat
Protocol: Behavioral Analysis Using the Novelty Suppressed Feeding Test (NSFT): The NSFT was conducted as previously described (Warner-Schmidt, J. L. & Duman, R. S. PNAS 104(11): 4647-52 (2007)). Rats were fasted in their home cages for 20 hr and then placed in a Plexiglas open field (76.5 cm×76.5 cm×40 cm) with a small amount of food in the center. Animals were allowed to explore the open field for 8 min and the latency to feed (s) was recorded.
Chronic Unpredictable Stress (CUS) Conditions: Rats were exposed to a variable sequence of 12 unpredictable stressors, preventing habituation as described (Li, N. et al., Biol Psychiatry 69(8): 754-61 (2011)). The following twelve stressors were applied (2 per day, for 25 days): cage rotation, light on, light off, cold stress, isolation, swim stress, food and water deprivation, wet bedding, stroboscope, cage tilt, odor exposure and group housing. The animals in non-stressed (NS) groups were housed normally without the application of external stressors. Both NS and CUS rats were handled and weighed weekly.
Study Design. Thirty-two (32) male Sprague Dawley Male rats weighing between 175 and 200 g were randomized into 4 study groups (n=8/treatment group), following a 5-day acclimation period. On study day 0, rats received a single dose of either saline (Sal) or ketamine (Ket) in Groups 1 and 2, respectively, by intraperitoneal injection (i.p.). The rats in Group 3 and 4 received a single dose of the NV-5138 vehicle (Veh, 0.5% Methylcellulose/0.1% Tween-80) or NV-5138 (160 mg/kg), respectively, by oral gavage. All rats were subjected to the FUST on day 1, 24 hrs after dosing. On day 2, 48 hrs after dosing, the LMA of all rats was measured in an open field. Rats were then fasted for 20 hrs and subjected to the NSFT, 72 hrs post-dose.
Study Design: Fifty-six (56) male rats weighing between 175 and 200 g were randomized into 4 study groups (n=14/group), following a 5-day acclimation period. On study day minus 20, two groups of rats were subjected to CUS for 25 days and two groups of rats were housed normally serving as the NS group. On the day 21 of the CUS protocol, rats received a single dose of either Veh or NV-5138 (160 mg/kg) by oral gavage (day 0). The SPT and NSFT were performed 24 and 48 hrs post-administration (days 1 and 2), respectively. Upon completion of the behavioral tests, after 25 days of the CUS protocol a second dose of NV-5138 or Veh was administered on day 5 and rats were sacrificed 24 hrs later by conscious decapitation. Crude synaptosomes were prepared from the PFC and the synaptic proteins, GluR1 and PSD95 were quantitated by WB.
Study Design. Twenty (20) male rats weighing between 175 and 200 g were randomized into 3 study groups (n=6-7/group), following a 5-day acclimation period. All rats were surgically implanted with bilateral IT cannulas in the PFC 2 weeks prior to dosing. […] Thirty minutes following the intrathecal infusions, either NV-5138 vehicle (Veh-NV, 0.5% methylcellulose/0.1% Tween-80) or NV-5138 (160 mg/kg) was administered by oral gavage. Each treatment group was assessed at the designated time following oral dosing in FST 24 hrs (day 1) LMA 48 hrs (day 2) and the NSFT 72 hrs (day 3 following a 20 hr period of fasting). LMA was measured to rule out overall changes in generally locomotor activity. The study design is presented in Table 11 with timeline of surgical procedures, test article administration and behavioral tests is provided in FIG. 20
Study Design. Forty-eight (48) male rats weighing between 175 and 200 g were randomized into 6 study groups (n=8/group), following a 5-day acclimation period. A single dose of all test articles was administered on day 0 and the behavioral tests were performed 3, 7 and 10 days later. Groups 1 and 2 were dosed on day 0 with NV-5138 (160 mg/kg by oral gavage) and Ket (10 mg/kg by i.p. injection), respectively and subjected to a FST on day 3. […]

Male Sprague Dawley rats [2] = test: Sucrose Preference Test (SPT) in non-stressed and chronic unpredictable stress rats; assay type: in vivo, rat; conditions: Example E, NV-5138 160 mg/kg oral single dose, 24 hrs after dosing
Protocol: Behavioral Analysis Using the Sucrose Preference Test (SPT): Rats were habituated to a palatable sucrose 1% sucrose solution for 48 hrs to avoid neophobia. Rats were treated with NV-5138 or Veh at the end of day 0 and the SPT was performed 24 hrs post-administration on day 1. For the SPT, rats were deprived of water for 6 hrs and exposed for 60 min to two bottles with equal volumes of 1% sucrose or water. The ratio of the volume of sucrose water consumed to total water consumed during the 1 hr test was defined as sucrose preference (e.g., a ratio of 1 would indicate the rat consumed only 1% sucrose, while a ratio of 0.5 would indicate that the rat drank equal amounts of 1% sucrose and water).
Chronic Unpredictable Stress (CUS) Conditions: Rats were exposed to a variable sequence of 12 unpredictable stressors, preventing habituation as described (Li, N. et al., Biol Psychiatry 69(8): 754-61 (2011)). […]
Study Design: Fifty-six (56) male rats weighing between 175 and 200 g were randomized into 4 study groups (n=14/group), following a 5-day acclimation period. […] Crude synaptosomes were prepared from the PFC and the synaptic proteins, GluR1 and PSD95 were quantitated by WB. […]

SMILES | decrease in the latency to feed (NSFT) vs Sal (Male Sprague Dawley rats [1]; Example A, Ket 10 mg/kg i.p. single dose, 72 hrs post-dose, p<0.01) [%] | NSFT vs Sal (Male Sprague Dawley rats [1]; Example G, Ket 10 mg/kg i.p. single dose, 10 days post-dose) | decrease in the latency to feed (NSFT) vs Veh (Male Sprague Dawley rats [1]; Example A, NV-5138 160 mg/kg oral single dose, 72 hrs post-dose, p<0.01) [%] | NSFT latency to feed (Male Sprague Dawley rats [1]; Example E, CUS rats, NV-5138 160 mg/kg oral, 48 hrs after treatment, p<0.0001 vs CUS Veh) [s] | NSFT latency to feed (Male Sprague Dawley rats [1]; Example E, non-stressed (NS) rats, NV-5138 160 mg/kg oral, 48 hrs after treatment, p<0.01 vs Veh) [s] | NSFT latency to feed (Male Sprague Dawley rats [1]; Example F, Veh-R IT infusion then NV-5138 160 mg/kg oral, 72 hrs) [s] | decrease in NSFT latency to feed vs Veh-R/Veh-NV (Male Sprague Dawley rats [1]; Example F, Veh-R IT infusion then NV-5138 160 mg/kg oral, 72 hrs, p<0.05, 160 mg/kg) | NSFT latency to feed, R/NV-5138 vs Veh-R/Veh-NV (Male Sprague Dawley rats [1]; Example F, rapamycin (R, 0.01 nmol) IT infusion into PFC 30 min before NV-5138 160 mg/kg oral, 72 hrs) | NSFT vs Veh (Male Sprague Dawley rats [1]; Example G, NV-5138 160 mg/kg oral single dose, 10 days post-dose) | NSFT (Male Sprague Dawley rats [1]; Example I, NV-5138 80 mg/kg oral daily for 7 days, day 9, 72 hrs post-last dose) | SPT, mean ratio of 1% sucrose to water consumption (Male Sprague Dawley rats [2]; CUS rats (Group 4)) | SPT, mean ratio of 1% sucrose to water consumption (Male Sprague Dawley rats [2]; non-stressed (NS) rats)
CNC1(c2ccccc2Cl)CCCCC1=O (stereo not drawn) [Ket, ketamine, reference compound] | 31 | No significant difference | – | – | – | – | – | – | – | – | – | –
CC(C)(C[C@H](N)C(=O)O)C(F)F [NV-5138] | – | – | 36 | 520.1 ± 40.35 | 430.6 ± 25.3 | 510 ± 50 | 46% and 32% | lack of significant effect on latency to feed | No significant difference | Significant effects | 0.79 | 0.76
